Reference: article PMC4318582, “Chemotherapy of Second Stage Human African Trypanosomiasis: Comparison between the Parenteral Diamidine DB829 and Its Oral Prodrug DB868 in Vervet Monkeys” (PLoS Neglected Tropical Diseases, 2015)
“And” between values parts separate entries of the source, which are not always exact repeats. Identical values can stand only once. Like-named read-outs stand apart in the source and are kept apart here.

What was measured:
[1] = Tolerability of dose regimens in infected vervet monkeys; type: in vivo, vervet monkey; settings: all IM DB829 and oral DB868 dose regimens
Text: Parasitaemia post-infection was monitored daily, using ear-prick capillary blood, through the completion of DB868 and DB829 treatment. Following the last drug dose (LDD), blood and CSF samples were examined for trypanosomes at 1, 4, 7, and 14 days to determine the end of treatment (EoT) response; monkeys which were positive for trypanosomes in either blood or CSF at the end of this 14-day period were classified as treatment failures/not cured while those that were free of trypanosomes were classified as provisionally cured. After the 14-day EoT evaluations, parasitaemia examinations were continued twice weekly to ≥ 300 days post-LDD as described previously. Additionally, physical examinations and haematological assessments were carried out once weekly up to 28 days post-LDD, once every two weeks between 28 and 100 days post-LDD, and monthly thereafter until the end of the study as described previously. At 300 days post-LDD, monkeys were considered cured if they remained normal clinically and parasite-free in the blood and CSF. Pharmacokinetic outcomes were monitored for a minimum of 60 days post-LDD as described previously. To facilitate the collection of blood and CSF for these assessments, the monkeys were anaesthetised with an IM injection of ketamine HCl (10–15 mg/kg) and diazepam (0.5 mg/kg). […]

[2] = CSF DB829 concentrations in infected vervet monkeys; type: in vivo, vervet monkey; settings: for concentration at 1 h: 5 mg/kg/day, read-out: geometric mean CSF DB829 concentration
Text: Parasitaemia post-infection was monitored daily, using ear-prick capillary blood, through the completion of DB868 and DB829 treatment. […] At 300 days post-LDD, monkeys were considered cured if they remained normal clinically and parasite-free in the blood and CSF. Pharmacokinetic outcomes were monitored for a minimum of 60 days post-LDD as described previously. […] Monkeys that relapsed, characterized by trypanosome recrudescence in the blood or CSF, were rescue-treated with melarsoprol.
(§1) Plasma samples were processed for quantification of DB868 and DB829 by high performance liquid chromatography-tandem mass spectrometry (HPLC-MS/MS) as described previously. CSF samples were processed in a manner similar to that of plasma samples.

[3] = Plasma pharmacokinetics in infected vervet monkeys (HPLC-MS/MS); type: in vivo, vervet monkey; settings: for AUClast: last measurable concentration varied (112–490 days); for CL/F: read-out: Cl/F (apparent clearance) (converted)
Text: Parasitaemia post-infection was monitored daily, using ear-prick capillary blood, through the completion of DB868 and DB829 treatment. Following the last drug dose (LDD), blood and CSF samples were examined for trypanosomes at 1, 4, 7, and 14 days to determine the end of treatment (EoT) response; monkeys which were positive for trypanosomes in either blood or CSF at the end of this 14-day period were classified as treatment failures/not cured while those that were free of trypanosomes were classified as provisionally cured. After the 14-day EoT evaluations, parasitaemia examinations were continued twice weekly to ≥ 300 days post-LDD as described previously. Additionally, physical examinations and haematological assessments were carried out once weekly up to 28 days post-LDD, once every two weeks between 28 and 100 days post-LDD, and monthly thereafter until the end of the study as described previously. At 300 days post-LDD, monkeys were considered cured if they remained normal clinically and parasite-free in the blood and CSF. Pharmacokinetic outcomes were monitored for a minimum of 60 days post-LDD as described previously. To facilitate the collection of blood and CSF for these assessments, the monkeys were anaesthetised with an IM injection of ketamine HCl (10–15 mg/kg) and diazepam (0.5 mg/kg). Monkeys that relapsed, characterized by trypanosome recrudescence in the blood or CSF, were rescue-treated with melarsoprol. Melarsoprol (Mel B), supplied by the World Health Organization as a 3.6% (w/v) solution in propylene glycol, was administered intravenously at 3.6 mg/kg/day for 4 consecutive days.
as §1
Clinical and haematological data were analysed using Statview for Windows Version 5.0.1 (1995–1998; SAS Institute Inc., Cary, NC, USA). Repeated measures ANOVA, with Fisher’s PLSD post hoc test, was used to test the effect of trypanosome infection on haematologic parameters in comparison with respective baseline values (α = 0.05). In addition, the effects of IM DB829 and oral DB868 on these haematologic parameters in monkeys with confirmed second stage HAT were tested. Pharmacokinetic outcomes were recovered using traditional non-compartmental methods using Phoenix WinNonlin (version 6.2; Pharsight, Mountain View, CA, USA).

T. b. brucei GVR35 = test system: T. b. brucei GVR35; set-up: method as in PMID 19620327; settings: cited from earlier work
[4] = IM DB829 consecutive-day dosing
[5] = after 5th IM dose, Group 1 = 5 mg/kg × 5 consecutive days, 5 mg/kg
[6] = after 5th IM dose, Group 3 = 2.5 mg/kg × 5 consecutive days, 2.5 mg/kg

N=C(N)c1ccc(-c2ccc(-c3ccc(C(=N)N)cn3)o2)nc1 [DB829, 2,5-bis(5-amidino-2-pyridyl)furan]
tolerability of dose regimens [1]: well tolerated
CSF DB829 concentration ([2]; IM 2.5 mg/kg/day consecutive-day dose group, limit of quantification 5 nmol/L): < 5 nmol/L
geometric mean CSF DB829 concentration ([2]; IM 5 mg/kg/day alternate-day dose group, 1 h post-LDD): ~7.3 nmol/L
CSF DB829 concentration ([2]; IM 5 mg/kg/day consecutive-day dose group, by 28 days post-LDD): below the limit of quantification
time DB829 CSF concentrations maintained above 5 nmol/L ([2]; IM 5 mg/kg/day regimens): 2–28 days post-LDD
concentration at 1 h ([2]; monkey, CSF, intramuscular, IM 5 mg/kg/day alternate-day dose group, 1 h post-LDD): 0.0073 µM
concentration at 1 h ([2]; monkey, CSF, intramuscular, IM 5 mg/kg/day consecutive-day dose group, 1 h post-LDD): 0.014 µM
Kp at 1 h ([2]; monkey, CSF, intramuscular, IM 5 mg/kg/day, either regimen, 1 h post-LDD, read-out: CSF concentration as share of total (bound + unbound) plasma concentration): ~0.001
CSF DB829 concentration ([2]; monkeys treated with oral DB868): not quantifiable
geometric mean plasma Cmax of DB829 relative to that after oral DB868 at 20 mg/kg/day ([3]; IM DB829 2.5 mg/kg/day): 10 times
AUC, alternate-day relative to consecutive-day dosing regimen ([3]; IM DB829 5 mg/kg/day): 5 fold
geometric mean plasma Cmax of DB829 relative to that after oral DB868 at 20 mg/kg/day ([3]; IM DB829 5 mg/kg/day, after last of 5 doses): 25 fold
terminal half-life, alternate-day relative to consecutive-day dosing regimen ([3]; IM DB829 5 mg/kg/day, 5 mg/kg/day): 4 fold and 5 fold
median plasma Tmax ([3]; IM DB829 2.5 and 5 mg/kg/day consecutive-day dose groups): 0.04 days
geometric mean AUC, 5 mg/kg/day group relative to 2.5 mg/kg/day group [3, 4]: 2.1 fold
geometric mean Cmax, 5 mg/kg/day group relative to 2.5 mg/kg/day group [3, 4]: 2.7 fold
AUC0-∞ [3, 5]: 13000 nmol·days/L and 15000 nmol·days/L
Cl/F (apparent clearance) [3, 5]: 0.0317 L/h/kg
t½ (terminal half-life) [3, 5]: 44 days
AUClast [3, 5]: 12000 nmol·days/L and 13000 nmol·days/L
t½ (terminal half-life) ([3]; after 5th IM dose, Group 2 = 5 mg/kg × 5 alternating days, 5 mg/kg): 180 days
AUC0-∞ [3, 6]: 8300 nmol·days/L and 5300 nmol·days/L
Cl/F (apparent clearance) [3, 6]: 0.0417 L/h/kg
t½ (terminal half-life) [3, 6]: 42 days
AUClast [3, 6]: 7700 nmol·days/L and 4500 nmol·days/L
geometric mean AUC0–63 of DB829 relative to single monkey of 3 mg/kg/day group ([3]; after oral DB868 10 mg/kg/day): approximately 3 fold
geometric mean AUC0–63 of DB829 relative to single monkey of 3 mg/kg/day group ([3]; after oral DB868 20 mg/kg/day): ~4 fold
CL/F ([3]; monkey, in vivo, im, 2.5 mg/kg, after 5th IM dose, Group 3 = 2.5 mg/kg × 5 consecutive days): 0.0279 L/h/kg
half-life ([3]; monkey, in vivo, im, 2.5 mg/kg, after 5th IM dose, Group 3 = 2.5 mg/kg × 5 consecutive days, read-out: t½ (terminal half-life) (converted)): 33 days
Cmax ([3]; monkey, in vivo, im, 2.5 mg/kg, plasma DB829 after 5th IM dose, Group 3 = 2.5 mg/kg × 5 consecutive days, read-out: Cmax): 4.2 µM
Tmax ([3]; monkey, in vivo, im, 2.5 mg/kg, plasma DB829 after 5th IM dose, Group 3 = 2.5 mg/kg × 5 consecutive days, read-out: Tmax (converted)): 0.04 days
CL/F ([3]; monkey, in vivo, im, 5 mg/kg, after 5th IM dose, Group 1 = 5 mg/kg × 5 consecutive days): 0.0354 L/h/kg
half-life ([3]; monkey, in vivo, im, 5 mg/kg, after 5th IM dose, Group 1 = 5 mg/kg × 5 consecutive days, read-out: t½ (terminal half-life) (converted)): 34 days
half-life ([3]; monkey, in vivo, im, 5 mg/kg, after 5th IM dose, Group 2 = 5 mg/kg × 5 alternating days, read-out: t½ (terminal half-life) (converted)): 130 days
Cmax ([3]; monkey, in vivo, im, 5 mg/kg, plasma DB829 after 5th IM dose, Group 1 = 5 mg/kg × 5 consecutive days, read-out: Cmax): 12 µM
Tmax ([3]; monkey, in vivo, im, 5 mg/kg, plasma DB829 after 5th IM dose, Group 1 = 5 mg/kg × 5 consecutive days, read-out: Tmax (converted)): 0.04 days
Cmax ([3]; monkey, in vivo, im, 5 mg/kg, plasma DB829 after 5th IM dose, Group 2 = 5 mg/kg × 5 alternating days, read-out: Cmax): 16 µM
Tmax ([3]; monkey, in vivo, im, 5 mg/kg, plasma DB829 after 5th IM dose, Group 2 = 5 mg/kg × 5 alternating days, read-out: Tmax (converted)): 0.04 days
half-life ([3]; monkey, in vivo, im, IM DB829 consecutive-day dosing regimens, read-out: geometric mean (range) terminal half-life (t½) (converted)): 38 days
Cmax ([3]; monkey, in vivo, po, 3 mg/kg/day, after oral DB868 3 mg/kg/day, read-out: Geometric mean Cmax (range) of DB829): 0.085 µM
Cmax ([3]; monkey, in vivo, po, 3 mg/kg/day, plasma DB829 after the 10th oral dose of DB868, 3 mg/kg × 10 days, read-out: Cmax): 0.06 µM
Cmax ([3]; monkey, in vivo, po, 10 mg/kg/day, after oral DB868 10 mg/kg/day, read-out: Geometric mean Cmax (range) of DB829): 0.27 µM
Cmax ([3]; monkey, in vivo, po, 10 mg/kg/day, plasma DB829 after the 10th oral dose of DB868, 10 mg/kg × 10 days, read-out: Cmax): 0.41 µM
half-life ([3]; monkey, in vivo, po, 10 mg/kg/day, plasma DB829 after the 10th oral dose of DB868, 10 mg/kg × 10 days, read-out: t½ (converted)): 120 days
Cmax ([3]; monkey, in vivo, po, 20 mg/kg/day, after oral DB868 20 mg/kg/day, read-out: Geometric mean Cmax (range) of DB829): 0.53 µM
Cmax ([3]; monkey, in vivo, po, 20 mg/kg/day, plasma DB829 after the 10th oral dose of DB868, 20 mg/kg × 10 days, read-out: Cmax): 0.46 µM
Tmax ([3]; monkey, in vivo, po, after oral DB868, three treatment groups, read-out: Median plasma Tmax for DB829 (converted)): 0.33 days
Tmax ([3]; monkey, in vivo, po, after oral DB868, three treatment groups, read-out: range of plasma Tmax for DB829): 0.04 to 2 days
half-life ([3]; monkey, in vivo, po, given IM or orally as DB868, range over monkeys, read-out: half-life for DB829): 33 to 180 days
Cmax ([3]; plasma DB829 after 5th IM dose, Group 1 = 5 mg/kg × 5 consecutive days, 5 mg/kg, read-out: Cmax): 15 µM
Cmax ([3]; plasma DB829 after 5th IM dose, Group 2 = 5 mg/kg × 5 alternating days, 5 mg/kg, read-out: Cmax): 8.9 µM
Cmax ([3]; plasma DB829 after 5th IM dose, Group 3 = 2.5 mg/kg × 5 consecutive days, 2.5 mg/kg, read-out: Cmax): 5.9 µM
Tmax ([3]; plasma DB829 after the 10th oral dose of DB868, 3 mg/kg × 10 days): 0.33 days
AUC0–63 ([3]; plasma DB829 after the 10th oral dose of DB868, 3 mg/kg × 10 days, 0 to 63 days): 1800 nmol·days/L
Cmax ([3]; plasma DB829 after the 10th oral dose of DB868, 3 mg/kg × 10 days, read-out: Cmax): 0.11 µM
Cmax ([3]; plasma DB829 after the 10th oral dose of DB868, 10 mg/kg × 10 days, read-out: Cmax): 0.34 µM
Cmax ([3]; plasma DB829 after the 10th oral dose of DB868, 20 mg/kg × 10 days, read-out: Cmax): 0.63 µM and 0.5 µM
efficacy in the murine model of second stage HAT (T. b. brucei GVR35): fully curative
